Here are results for eight molecules from patent publication US20040219202A1, “Pharmaceutical composition comprising lipids comprising a polar and a nonpolar moiety” (priority 2001, published 2004).

Entries after “also recorded” stand apart in the source; their conditions may differ.

One test has as its system COS-7 cells. As to the kind of experiment: Transfection of COS-7 cells with LMDs (liposome:mu:DNA), β-galactosidase reporter assay. As to conditions: for Transfection relative to DOPE (fraction): CDAN:Helper Lipid, summary. The format is cell-based. On the procedure: (§1) Purity of the lipids was checked by TLC or HPLC. All lipids were stored as stock solutions in anhydrous CH2Cl2, at concentrations of either 5 mg/ml or 10 mg/ml, at −80° C., under Ar. In order to prepare cationic liposomes, lipids were added to a round-bottomed flask, via syringe, under Ar, and further freshly distilled CH2Cl2 was added, if necessary, to give a concentration of around 2.5 mg/ml. Then, 4 mM HEPES pH 7.0 (1 ml) was added, and the biphasic system was swirled to mix. A liposomal suspension was created by removing the organic solvent under reduced pressure at 25° C., followed by sonication for 2-5 min. in a water bath sonicator. Doubly-distilled water was added, if necessary, to return the total volume to 1 ml. All liposomal solutions were prepared at a final concentration of 5 mg/ml. The pH of the liposomal suspension was checked by pH Boy (Camlab Ltd., Over, Cambridgeshire, UK) and adjusted to pH 7.0±0.1 with concentrated aqueous solutions of HCl and NaOH.
(§2) Liposomes were extruded (Extruder, Northern Upids, Inc., Vancouver, BC, Canada) by passing through two 100 nm polycarbonate filters (Isopore™ Membrane Filters, Millipore (UK) Ltd., Watford, Hertfordshire, UK) ten times. For each preparation, the size distribution of liposomes was measured by photon correlation spectroscopy (PCS) (Coulter® N4 Plus Submicron Particle Sizer, Beckman Coulter, High Wycombe, Buckinghamshire, UK). For phospholipid-containing liposomes, phospholipid concentrations were checked by the Stewart assay.^23 In each case, a final lipid concentration of 4.7±0.1 mg/ml was observed. For non-phospholipid containing liposomes, lipid loss was also inevitable on extrusion. For all fast-extruding liposomal suspensions, total lipid concentration was assumed to be 4.7 mg/ml. For slower extrusions, total lipid concentrations were assumed to be 4.3 mg/ml. Very slowly extruding liposomes were extruded three times only and assumed to be 4.7 mg/ml.
(§3) Plasmid DNA containing the β-galactosidase gene (pNGVL1-nt-beta-gal; 7.53 kbp) was stored as frozen aliquots at −80° C., at a concentration of 1.2 mg/ml; μ (mu) peptide (adenoviral core peptide [H2N-Met-Arg-Arg-Ala-His-His-Arg-Arg-Arg-Arg-Ala-Ser-His-Arg-Arg-Met-Arg-Gly-Gly-CO2H]) was synthesised as described previously,^7 and maintained at 4° C. in aliquots of 1 mg/ml. Mu-DNA complexes were made by adding plasmid DNA to mu in 4 mM HEPES at a ratio of 1:0.6 (w/w) with fast vortexing. LMDs were prepared by complexing mu-DNA particles with cationic liposomes (as prepared above) in a ratio of 1:12 (w/w), such that all LMDs for all formulations were substantially cationic. For each preparation, the size distribution of LMDs was measured by PCS.
COS-7 cells were maintained in DMEM/10% FCS/1% penicillin-streptomycin (Gibco™) at 37° C./5% CO2 in a humidified atmosphere. Twenty-four hours prior to transfection, 10 000 cells per well were seeded in 48-well microtitre plates (Coming Costar) in 500 μl medium. Plasmid DNA and Transfast™ controls were prepared as above. 5 μl (0.5 μg DNA) of LMD formulation was added to each well. All experiments were performed in quadruplicate. The plate was swirled for 30 s, and incubated for 1 h at 37° C. Medium was then removed, and 500 μl of fresh medium was added. The cells were incubated at 37° C. for a further 24 h.
Medium was aspirated from the wells and the cell layer was washed with phosphate buffered saline (PBS) (Gibco™). The cells of each well were lysed in 150 μl lysis reagent (prepared according to the supplier's protocol; β-Gal Reporter Gene Assay, Roche Diagnostics GmbH, D-68305 Mannheim, Germany) at room temperature for 30 min. After lysis, […], 50 μl and 20 μl, of each cell suspension were used for the determination of β-galactosidase activity and for the determination of total cellular protein (to normalise results), respectively.
In the β-gal assay, 100 μl of the substrate reagent was added to 50 μl of the cell suspension in a white 96-well microplate (Coming Costar). […]

Another test concerns Panc-1 cells. In words: Transfection of Panc-1 cells with LMDs (liposome:mu:DNA), β-galactosidase reporter assay. Format: cell-based. The protocol:
as §1, §2, §3
Panc-1 cells were maintained in RPMI/10% FCS/1% penicillin-streptomycin (Gibco™, Invitrogen Corporation, Paisley, Scotland, UK) at 37° C./5% CO2 in a humidified atmosphere. Twenty-four hours prior to transfection, 30 000 cells per well were seeded in 48 well microtitre plates (Corning Costar, Merck Ltd., Lutterworth, Leicestershire, UK) in 500 μl medium. As a control, plasmid DNA (0.5 μg in 200 μl medium) was added to a well. As a positive control, 1.5 μl Transfast™ (Promega Corporation, Madison, Wis., USA; prepared according to the supplier's protocol) in 200 μl medium was complexed with plasmid DNA (0.5 μg) and added to a well. 5 μl (0.5 μg DNA) of LMD formulation was added to each well. All experiments were performed in quadruplicate. The plate was swirled for 30 s, and incubated for 1 h at 37° C. Medium was then removed, and 500 μl of fresh medium was added. The cells were incubated at 37° C. for a further 24 h.
Medium was aspirated from the wells and the cell layer was washed with phosphate buffered saline (PBS) (Gibco™). The cells of each well were lysed in 150 μl lysis reagent (prepared according to the supplier's protocol; β-Gal Reporter Gene Assay, Roche Diagnostics GmbH, D-68305 Mannheim, Germany) at room temperature for 30 min. […]
(In a reporter assay the amount or activity of a reporter protein is the signal.)

For test [1] the following is noted: literature statement; cited from earlier work.
[2] abbreviates: LMDs of CDAN:Helper Lipid, 1:1 liposomes, DOPE-analogues, FIG. 16.
Where [3] appears, read: LMDs of CDAN:Helper Lipid, 2:3 liposomes, FIG. 17.
The mark [4] stands for this setting: LMDs of CDAN:Helper Lipid, 3:2 liposomes, FIG. 15.
Setting [5] is: LMDs of pure DOTAP or DOTAP-analogue liposomes, FIG. 20.
Setting [6] is: LMDs of DOPE:Cationic Lipid, 1:1 liposomes, FIG. 21.
Where [7] appears, read: LMDs of CDAN:Helper Lipid, 1:1 liposomes, DOPC-analogues, FIG. 13.
[8] abbreviates: LMDs of CDAN:Helper Lipid, 1:1 liposomes, FIG. 14.

On to `CCCCCCCC/C=C\CCCCCCCC(=O)OCC(COP(=O)(O)OCCN)OC(=O)CCCCCCC/C=C\CCCCCCCC` (stereo not drawn) [DOPE, dioleoylphosphatidylethanolamine], for which the “Transfection (β-galactosidase activity)” value in the test on COS-7 cells (LMDs of CDAN:Helper Lipid, 1:1 liposomes, DOPE-analogues, FIG. 14) is “transfection levels are high and approximately the same; also recorded: transfect COS-7 cells very well and to a similar degree”; with Panc-1 cells (setting [2]) it was “transfect well and approximately to the same degree; also recorded: all transfect equally well”; in the test on Panc-1 cells (setting [3]) it was “below that of Transfast”; with Panc-1 cells (setting [4]), “transfects around as twice as well as the nearest acetylenic analogue; also recorded: transfects better than all the monoacetylenic analogues”.
Take `CCCC#CCCCCCCCCCCCCC(=O)OCC(C[N+](C)(C)C)OC(=O)CCCCCCCCCCCCC#CCCC.COS(=O)(=O)[O-]` (stereo not drawn) [DO(14-yne)TAP]: the “Transfection (β-galactosidase activity)” value in the test on COS-7 cells (setting [5]) is “almost total loss of transfection activity; also recorded: almost no transfection at all”; with Panc-1 cells (LMDs composed entirely of DOTAP or DOTAP-analogue liposomes, FIG. 19) it was “a six-fold improvement on standard DOTAP; also recorded: transfect up to six times better than DOTAP; also recorded: transfects better than DOTAP”; in the test on Panc-1 cells (setting [6]), “a seven-fold increase”. Also, the “Loss of transfection activity on replacing DOTAP” value in the test with Panc-1 cells (Cholesterol:Cationic Lipid, 1:1 liposomes, FIG. 22) is listed as “around 30%”.
`CCCCCCCC/C=C\CCCCCCCC(=O)OC[C@H](COP(=O)([O-])OCC[N+](C)(C)C)OC(=O)CCCCCCC/C=C\CCCCCCCC` [DOPC]: the “Transfection (β-galactosidase activity)” value in the test with COS-7 cells (setting [7]) is recorded as “transfect equally well”. The “In vitro transfection in cationic liposome formulations” value in test [1] is listed as “eliminate or severely attenuate transfection”.
Turning to `CCCCCCCCC#CCCCCCCCC(=O)OCC(C[N+](C)(C)C)OC(=O)CCCCCCCC#CCCCCCCCC.COS(=O)(=O)[O-]` (stereo not drawn) [DO(9-yne)TAP], the “Transfection (β-galactosidase activity)” value was “transfects around one and-a-half times better than standard DOTAP; also recorded: transfect as well as DOTAP liposomes” in the test on COS-7 cells (setting [5]); “transfects as well as DOTAP” in the test on Panc-1 cells (LMDs of Cholesterol:Cationic Lipid, 1:1 liposomes, FIG. 22); “a small increase in transfection” with Panc-1 cells (setting [6]).
As for `CCCCCCCCCCCCCC#CCCC(=O)OC[C@H](COP(=O)(O)OCCN)OC(=O)CCC#CCCCCCCCCCCCCC` [DO(4-yne)PE], the “Transfection relative to DOPE (fraction)” value with COS-7 cells (1:1 liposomes) was “about 1/3”. Moreover, in the test on COS-7 cells (setting [8]), the “Fall in transfection on substituting DOPE” value is recorded as “about 67%”. The “Transfection (β-galactosidase activity)” value was “fallen to around that of Transfast” with Panc-1 cells (CDAN:Helper Lipid, 2:3, repeat, liposomes not fresh, LMDs fresh, FIG. 18); “transfect well and approximately to the same degree; also recorded: all transfect equally well” in the test with Panc-1 cells (setting [2]); “transfect the best, up to five times better than DOPE” in the test with Panc-1 cells (setting [3]); “transfect very poorly” with Panc-1 cells (setting [4]).
Consider `CCCCCCCCCCCCC#CC#CCCCCCCCCCC(=O)NCCN(CCNC(=N)N)CCNC(=N)N` [BGDA, bisguanidinium-diacetylene], for which the “In vitro transfection in cationic liposome formulations” value in test [1] was “highly efficient”.
On to `CCCC#CCCCCCCCCCCCCC(=O)OC[C@H](COP(=O)(O)OCCN)OC(=O)CCCCCCCCCCCCC#CCCC` [DO(14-yne)PE], for which, in the test on COS-7 cells (1:1 liposomes), the “Transfection relative to DOPE (fraction)” value is “about 1/3”. In addition, the “Fall in transfection on substituting DOPE” value in the test on COS-7 cells (setting [8]) is “about 67%”. Moreover, the “Transfection (β-galactosidase activity)” value with Panc-1 cells (setting [2]) is recorded as “transfects around half as well as DOPE”; in the test on Panc-1 cells (setting [3]) it was “transfects the least well out of the monoacetylenic analogues”; in the test with Panc-1 cells (setting [4]), “transfect very poorly”.
`CCCCCCCCCCCCCC#CCCC(=O)OC[C@H](COP(=O)([O-])OCC[N+](C)(C)C)OC(=O)CCC#CCCCCCCCCCCCCC` [DO(4-yne)PC]: the “Transfection (β-galactosidase activity)” value in the test with COS-7 cells (setting [7]) is given as “a fall in transfection ability”; in the test on Panc-1 cells (LMDs of CDAN:Helper Lipid, 1:1 (mol/mol) liposomes, DOPC-analogues, FIG. 12) it was “almost complete loss of any transfection ability”.
